Test results from patent US12559464B2, “Quinazolinone dione compounds and uses thereof” (Edgewise Therapeutics, Inc., priority 2023, dated 2026).

Assays:
[1] = tested on: myosin ATPase, Rabbit Psoas myofibrils; test: Myofibril ATPase assay, rabbit psoas (skeletal) myofibrils; assay type: biochemical; conditions: concentration required to reduce myosin ATP-ase activity by 25%; Rabbit Psoas Prep pCa 25 GEOM_MEAN
[2] = tested on: myosin ATPase, Porcine Atria myofibrils; test: Myofibril ATPase assay, porcine atria myofibrils; assay type: biochemical; conditions: concentration required to reduce myosin ATP-ase activity by 25%; Porcine Atria Prep pCa 25 GEOM_MEAN
[3] = molecular target: T1, myosin ATPase, Porcine Ventricle myofibrils (Sus scrofa, UniProt P79293); test: Myofibril ATPase assay, porcine ventricle myofibrils; assay type: biochemical, porcine (Yucatan minipigs); conditions: concentration required to reduce myosin ATP-ase activity by 25%; Porcine Ventricle Prep pCa 25 GEOM_MEAN
T1 construct: Myofibrils from porcine cardiac muscle was isolated from the left ventricle of Yucatan minipigs; tissue Exemplar Genetics; host or cells: left ventricle of Yucatan minipigs, myofibrils
T1 sequence (P79293 whole entry): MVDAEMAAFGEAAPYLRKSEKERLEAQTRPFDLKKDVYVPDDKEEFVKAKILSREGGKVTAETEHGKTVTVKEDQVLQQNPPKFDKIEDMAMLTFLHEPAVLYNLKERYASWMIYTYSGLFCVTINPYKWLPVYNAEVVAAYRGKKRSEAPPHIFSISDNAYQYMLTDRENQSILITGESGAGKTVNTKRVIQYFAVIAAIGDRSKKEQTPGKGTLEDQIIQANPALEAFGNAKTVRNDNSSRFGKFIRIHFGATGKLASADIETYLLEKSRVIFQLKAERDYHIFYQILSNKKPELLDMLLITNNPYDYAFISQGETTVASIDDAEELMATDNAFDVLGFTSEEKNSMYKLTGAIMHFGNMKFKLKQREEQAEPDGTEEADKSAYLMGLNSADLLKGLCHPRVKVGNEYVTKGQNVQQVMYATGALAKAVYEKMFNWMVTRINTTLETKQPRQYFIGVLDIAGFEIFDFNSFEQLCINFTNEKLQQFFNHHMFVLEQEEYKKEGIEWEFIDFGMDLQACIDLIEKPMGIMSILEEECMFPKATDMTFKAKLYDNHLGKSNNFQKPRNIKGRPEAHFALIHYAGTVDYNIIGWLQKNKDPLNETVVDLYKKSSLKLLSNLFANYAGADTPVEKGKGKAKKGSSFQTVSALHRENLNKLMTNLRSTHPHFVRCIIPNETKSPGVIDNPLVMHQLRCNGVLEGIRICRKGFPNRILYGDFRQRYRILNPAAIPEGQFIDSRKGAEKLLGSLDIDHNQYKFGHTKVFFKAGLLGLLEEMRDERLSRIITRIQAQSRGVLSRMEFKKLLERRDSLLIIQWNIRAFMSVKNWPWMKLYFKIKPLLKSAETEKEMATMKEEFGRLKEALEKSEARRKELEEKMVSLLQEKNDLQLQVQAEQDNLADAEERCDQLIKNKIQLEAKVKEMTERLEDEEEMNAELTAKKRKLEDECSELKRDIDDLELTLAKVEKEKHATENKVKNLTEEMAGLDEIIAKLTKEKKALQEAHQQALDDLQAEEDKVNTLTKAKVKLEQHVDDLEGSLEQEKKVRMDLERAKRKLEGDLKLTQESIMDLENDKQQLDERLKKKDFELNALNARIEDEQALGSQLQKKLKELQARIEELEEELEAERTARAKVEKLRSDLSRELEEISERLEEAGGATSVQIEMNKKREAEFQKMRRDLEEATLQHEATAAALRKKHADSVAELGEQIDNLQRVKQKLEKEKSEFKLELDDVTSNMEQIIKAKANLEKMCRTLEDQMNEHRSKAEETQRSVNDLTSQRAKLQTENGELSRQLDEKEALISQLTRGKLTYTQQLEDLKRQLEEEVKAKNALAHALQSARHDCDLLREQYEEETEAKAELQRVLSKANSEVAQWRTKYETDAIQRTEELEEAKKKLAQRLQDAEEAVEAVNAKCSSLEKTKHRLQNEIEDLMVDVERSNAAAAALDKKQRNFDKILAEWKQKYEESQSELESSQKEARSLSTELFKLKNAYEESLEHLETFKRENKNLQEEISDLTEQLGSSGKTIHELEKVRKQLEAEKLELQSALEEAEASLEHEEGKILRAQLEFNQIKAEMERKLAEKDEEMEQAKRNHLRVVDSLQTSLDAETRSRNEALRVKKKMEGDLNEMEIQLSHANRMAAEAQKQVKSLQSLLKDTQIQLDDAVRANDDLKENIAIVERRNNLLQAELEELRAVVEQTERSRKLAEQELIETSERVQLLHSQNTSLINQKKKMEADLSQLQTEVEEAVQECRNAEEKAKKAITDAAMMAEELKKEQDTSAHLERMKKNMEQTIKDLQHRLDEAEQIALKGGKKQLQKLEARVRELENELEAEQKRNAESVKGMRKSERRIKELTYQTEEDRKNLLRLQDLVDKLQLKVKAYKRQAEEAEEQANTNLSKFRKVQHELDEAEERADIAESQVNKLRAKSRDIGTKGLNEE
Outline: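 Myofibrils from Yucatan minipig left ventricle; ADP production coupled via PK-LDH to NADH loss, read kinetically at 340 nm every 1.5–2 min for 75 min in PIPES/MgCl2 pH 7.0 buffer. Slopes normalized to vehicle and fit to 4-parameter logistic; values are concentrations giving 75% (inhibition) or 125% (activation) of vehicle activity.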

Rabbit Psoas EC25 (Y75 value) [1] [µM]	Porcine Atria EC25 (Y75 value) [2] [µM]	Porcine Ventricle EC25 (Y75 value) [3] [µM]	Structure (SMILES)
0.108	0.094	0.448	C[C@H](NC(=O)Cn1c(=O)[nH]c2ccc(F)cc2c1=O)c1ncc(C#N)cc1F (single isomer, unassigned) [Compound 8]
100	100	100	C[C@@H](NC(=O)Cn1c(=O)[nH]c2ccccc2c1=O)c1ccc(F)cc1F [Compound 166, (R)-N-(1-(2,4-difluorophenyl)ethyl)-2-(2,4-dioxo-1,4-dihydroquinazolin-3(2H)-yl)acetamide]
100	100	100	CCC(C(=O)N[C@@H](C)c1ccc(F)cc1F)n1c(=O)[nH]c2ccccc2c1=O (single isomer, unassigned) [Compound 509]
39.51	100	100	C[C@@H](NC(=O)Cn1c(=O)[nH]c2ccc(F)cc2c1=O)c1cnc(C#N)nc1 (single isomer, unassigned) [Compound 209]
100	100	100	O=C(Cn1c(=O)[nH]c2ccccc2c1=O)NCc1ccc(F)cc1F [Compound 5009, N-(2,4-difluorobenzyl)-2-(2,4-dioxo-1,4-dihydroquinazolin-3(2H)-yl)acetamide]
100	23.9	45.3	CC(NC(=O)Cn1c(=O)[nH]c2ccccc2c1=O)c1cnccn1 (stereo not drawn) [Compound 215, 2-(2,4-dioxo-1,4-dihydroquinazolin-3(2H)-yl)-N-(1-(pyrazin-2-yl)ethyl)acetamide]
21.27	5.931	23.76	Cc1cc(C#N)cnc1[C@H](C)NC(=O)Cn1c(=O)[nH]c2ccc(F)c(F)c2c1=O (single isomer, unassigned) [Compound 14]
0.036	0.083	0.205	C[C@H](NC(=O)Cn1c(=O)[nH]c2ccc(F)c(F)c2c1=O)c1ncc(C#N)cc1F (single isomer, unassigned) [Compound 22]
0.631	0.078	0.547	Cc1c(F)ccc2[nH]c(=O)n(CC(=O)N[C@@H]3CCc4cc(C#N)cnc43)c(=O)c12 (single isomer, unassigned) [Compound 9]
0.0495	0.1149	0.707	Cc1cccc2[nH]c(=O)n(CC(=O)N[C@@H](C)c3ccc(F)cc3F)c(=O)c12 [Compound 73, (S)-N-(1-(2,4-difluorophenyl)ethyl)-2-(5-methyl-2,4-dioxo-1,4-dihydroquinazolin-3(2H)-yl)acetamide]
0.817	5.405	100	O=C(Cn1c(=O)[nH]c2ccccc2c1=O)NC(CO)c1ccc(F)cc1F (stereo not drawn) [Compound 87, N-(1-(2,4-difluorophenyl)-2-hydroxyethyl)-2-(2,4-dioxo-1,4-dihydroquinazolin-3(2H)-yl)acetamide]
0.422	0.185	3.995	C[C@H](NC(=O)[C@H](C)n1c(=O)[nH]c2ccc(F)c(F)c2c1=O)c1ccc(F)cc1F [Compound 38, (S)-2-(5,6-difluoro-2,4-dioxo-1,4-dihydroquinazolin-3(2H)-yl)-N-((S)-1-(2,4-difluorophenyl)ethyl)propanamide]
12.297	63.31	100	C[C@H](NC(=O)Cn1c(=O)[nH]c2c(F)cccc2c1=O)c1ccc(F)cc1F [Compound 406, (S)-N-(1-(2,4-difluorophenyl)ethyl)-2-(8-fluoro-2,4-dioxo-1,4-dihydroquinazolin-3(2H)-yl)acetamide]
100	100	100	CC(NC(=O)Cn1c(=O)[nH]c2ccccc2c1=O)c1nccs1 (stereo not drawn) [Compound 601, 2-(2,4-dioxo-1,4-dihydroquinazolin-3(2H)-yl)-N-(1-(thiazol-2-yl)ethyl)acetamide]
0.156	0.4184	7.872	O=C(Cn1c(=O)[nH]c2ccccc2c1=O)N[C@H]1CCc2cc(F)cc(F)c21 (single isomer, unassigned) [Compound 48]
0.043	0.048	0.119	Cc1cc(C#N)cnc1[C@@H](C)NC(=O)Cn1c(=O)[nH]c2ccc(F)c(F)c2c1=O (single isomer, unassigned) [Compound 13]
100	100	100	CC(NC(=O)Cn1c(=O)[nH]c2ccccc2c1=O)c1cnn(C)c1 (stereo not drawn) [Compound 603, 2-(2,4-dioxo-1,4-dihydroquinazolin-3(2H)-yl)-N-(1-(1-methyl-1H-pyrazol-4-yl)ethyl)acetamide]
35.849	2.118	100	C[C@H](NC(=O)C(CO)n1c(=O)[nH]c2ccccc2c1=O)c1ccc(F)cc1F (single isomer, unassigned) [Compound 511]
